From the supplement of paper PMC10307832

Columns and labels:
Assay in all cases: relative viability (nuclei count vs DMSO), 5 days (fraction); higher = more cells survive
[1] = compound: CNC(=O)c1cc(Oc2ccc(NC(=O)Nc3ccc(Cl)c(C(F)(F)F)c3)cc2)ccn1 [Sorafenib]
In short: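 Lung cancer cell lines in 1536-well plates were exposed by pinning to five library-drug doses (not always all listed) √10 apart, following an overnight hold at 37 °C. MetaXpress counted Hoechst-stained nuclei from 4× images taken after 5 days without medium change. Viability is the median ratio of treated-well to vehicle-well nuclei across plates. Plates required control CV below 25% and at least one doubling.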

[2] = compound: CNC(=O)c1cc(Oc2ccc(NC(=O)Nc3ccc(Cl)c(C(F)(F)F)c3)cc2)ccn1 [Sorafenib] + O=C(c1cc(Cc2n[nH]c(=O)c3ccccc23)ccc1F)N1CCN(C(=O)C2CC2)CC1 [Olaparib] (partner 8 µM)
In short: (§1)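 Lung cancer cell lines, seeded in 1536-well plates, were treated the following day by pin tool with a single drug or with five library-drug doses (not always all listed) in √10 steps on top of a fixed anchor-drug dose. Cells were fixed and nuclei stained in one step after 5 days, and nuclei were counted. Relative viability is the nuclei count for treated wells divided by that for vehicle wells, reported as medians of duplicate plates.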

[3] = compound: CNC(=O)c1cc(Oc2ccc(NC(=O)Nc3ccc(Cl)c(C(F)(F)F)c3)cc2)ccn1 [Sorafenib] + C[C@]1(O)C[C@@H](c2nc(-c3ccc4ccc(-c5ccccc5)nc4c3)c3c(N)nccn32)C1 [Linsitinib] (partner 1 µM)
In short: as §1

[4] = compound: CNC(=O)c1cc(Oc2ccc(NC(=O)Nc3ccc(Cl)c(C(F)(F)F)c3)cc2)ccn1 [Sorafenib] + CS(=O)(=O)N1CCN(Cc2cc3nc(-c4cccc5[nH]ncc45)nc(N4CCOCC4)c3s2)CC1 [Pictilisib] (partner 1 µM)
In short: as §1

[5] = compound: CNC(=O)c1cc(Oc2ccc(NC(=O)Nc3ccc(Cl)c(C(F)(F)F)c3)cc2)ccn1 [Sorafenib] + CS(=O)(=O)CCNCc1ccc(-c2ccc3ncnc(Nc4ccc(OCc5cccc(F)c5)c(Cl)c4)c3c2)o1 [Lapatinib] (partner 2 µM)
In short: as §1

[6] = compound: CNC(=O)c1cc(Oc2ccc(NC(=O)Nc3ccc(Cl)c(C(F)(F)F)c3)cc2)ccn1 [Sorafenib] + CC1(C)CCC(c2ccc(Cl)cc2)=C(CN2CCN(c3ccc(C(=O)NS(=O)(=O)c4ccc(N[C@H](CCN5CCOCC5)CSc5ccccc5)c(S(=O)(=O)C(F)(F)F)c4)cc3)CC2)C1 [Navitoclax] (partner 0.5 µM)
In short: as §1

[7] = compound: CNC(=O)c1cc(Oc2ccc(NC(=O)Nc3ccc(Cl)c(C(F)(F)F)c3)cc2)ccn1 [Sorafenib] + CC(C)C[C@H](NC(=O)[C@H](Cc1ccccc1)NC(=O)c1cnccn1)B(O)O [Bortezomib] (partner 0.002 µM)
In short: as §1

[8] = compound: CNC(=O)c1cc(Oc2ccc(NC(=O)Nc3ccc(Cl)c(C(F)(F)F)c3)cc2)ccn1 [Sorafenib] + Cc1nc(NC(=O)N2CCC[C@H]2C(N)=O)sc1-c1ccnc(C(C)(C)C(F)(F)F)c1 [Alpelisib] (partner 2 µM)
In short: as §1

[9] = compound: CNC(=O)c1cc(Oc2ccc(NC(=O)Nc3ccc(Cl)c(C(F)(F)F)c3)cc2)ccn1 [Sorafenib] + COc1cc2c(Oc3ccc(NC(=O)C4(C(=O)Nc5ccc(F)cc5)CC4)cc3F)ccnc2cc1OCCCN1CCOCC1 [Foretinib] (partner 0.25 µM)
In short: as §1

[10] = compound: CNC(=O)c1cc(Oc2ccc(NC(=O)Nc3ccc(Cl)c(C(F)(F)F)c3)cc2)ccn1 [Sorafenib] + C[C@@H](Oc1cc(-c2cnn(C3CCNCC3)c2)cnc1N)c1c(Cl)ccc(F)c1Cl [Crizotinib] (partner 1 µM)
In short: as §1

[11] = compound: CNC(=O)c1cc(Oc2ccc(NC(=O)Nc3ccc(Cl)c(C(F)(F)F)c3)cc2)ccn1 [Sorafenib] + O=C(CCCCCCC(=O)Nc1ccccc1)NO [Vorinostat] (partner 1 µM)
In short: as §1

[12] = compound: CNC(=O)c1cc(Oc2ccc(NC(=O)Nc3ccc(Cl)c(C(F)(F)F)c3)cc2)ccn1 [Sorafenib] + CC(=O)Nc1cccc(-n2c(=O)n(C3CC3)c(=O)c3c(Nc4ccc(I)cc4F)n(C)c(=O)c(C)c32)c1 [Trametinib] (partner 0.02 µM)
In short: as §1

[13] = compound: CNC(=O)c1cc(Oc2ccc(NC(=O)Nc3ccc(Cl)c(C(F)(F)F)c3)cc2)ccn1 [Sorafenib] + COc1cccc2cc(-c3nc([C@H]4CC[C@H](C(=O)O)CC4)n4ncnc(N)c34)[nH]c12 [OSI-027] (partner 0.5 µM)
In short: as §1

[14] = compound: CNC(=O)c1cc(Oc2ccc(NC(=O)Nc3ccc(Cl)c(C(F)(F)F)c3)cc2)ccn1 [Sorafenib] + Nc1nc2[nH]cc(CCc3ccc(C(=O)N[C@@H](CCC(=O)O)C(=O)O)cc3)c2c(=O)[nH]1 [Pemetrexed] (partner 0.2 µM)
In short: as §1

[15] = compound: CNC(=O)c1cc(Oc2ccc(NC(=O)Nc3ccc(Cl)c(C(F)(F)F)c3)cc2)ccn1 [Sorafenib] + Cc1cc(Nc2cc(N3CCN(C)CC3)nc(Sc3ccc(NC(=O)C4CC4)cc3)n2)n[nH]1 [Tozasertib] (partner 0.1 µM)
In short: as §1

[16] = compound: CNC(=O)c1cc(Oc2ccc(NC(=O)Nc3ccc(Cl)c(C(F)(F)F)c3)cc2)ccn1 [Sorafenib] + Nc1ncn([C@H]2C[C@H](O)[C@@H](CO)O2)c(=O)n1 [Decitabine] (partner 2 µM)
In short: as §1

[17] = compound: CNC(=O)c1cc(Oc2ccc(NC(=O)Nc3ccc(Cl)c(C(F)(F)F)c3)cc2)ccn1 [Sorafenib] + NC(=O)Nc1cc(-c2cccc(F)c2)sc1C(=O)N[C@H]1CCCNC1 [AZD7762] (partner 0.2 µM)
In short: as §1

[18] = compound: CNC(=O)c1cc(Oc2ccc(NC(=O)Nc3ccc(Cl)c(C(F)(F)F)c3)cc2)ccn1 [Sorafenib] + CC(=O)c1c(C)c2cnc(Nc3ccc(N4CCNCC4)cn3)nc2n(C2CCCC2)c1=O [Palbociclib] (partner 0.5 µM)
In short: as §1

Calu-6
relative viability ([1]; 0.08 µM): 1.06
relative viability ([1]; 0.253 µM): 0.959
relative viability ([1]; 2.53 µM): 0.925
relative viability ([1]; 8 µM): 0.711
relative viability ([2]; first compound 0.08 µM): 0.538
relative viability ([2]; first compound 2.53 µM): 0.531
relative viability ([2]; first compound 8 µM): 0.306
relative viability ([3]; first compound 0.08 µM): 0.885
relative viability ([3]; first compound 2.53 µM): 0.904
relative viability ([3]; first compound 8 µM): 0.778
relative viability ([4]; first compound 0.08 µM): 0.964
relative viability ([4]; first compound 0.253 µM): 0.805
relative viability ([4]; first compound 2.53 µM): 0.864
relative viability ([4]; first compound 8 µM): 0.351
relative viability ([5]; first compound 0.08 µM): 1.04
relative viability ([5]; first compound 0.253 µM): 0.984
relative viability ([5]; first compound 2.53 µM): 0.99
relative viability ([5]; first compound 8 µM): 0.378
relative viability ([6]; first compound 0.08 µM): 0.887
relative viability ([6]; first compound 0.253 µM): 0.794
relative viability ([6]; first compound 2.53 µM): 0.724
relative viability ([6]; first compound 8 µM): 0.457
relative viability ([7]; first compound 0.08 µM): 0.948
relative viability ([7]; first compound 0.253 µM): 0.936
relative viability ([7]; first compound 2.53 µM): 0.934
relative viability ([7]; first compound 8 µM): 0.61
relative viability ([8]; first compound 0.08 µM): 0.923
relative viability ([8]; first compound 0.253 µM): 0.954
relative viability ([8]; first compound 2.53 µM): 0.948
relative viability ([8]; first compound 8 µM): 0.487
relative viability ([9]; first compound 0.08 µM): 0.973
relative viability ([9]; first compound 0.253 µM): 0.852
relative viability ([9]; first compound 2.53 µM): 0.816
relative viability ([9]; first compound 8 µM): 0.622
relative viability ([10]; first compound 0.08 µM): 0.928
relative viability ([10]; first compound 0.253 µM): 0.735
relative viability ([10]; first compound 2.53 µM): 0.679
relative viability ([10]; first compound 8 µM): 0.366

NCI-H1648
relative viability ([1]; 0.08 µM): 0.921
relative viability ([1]; 0.253 µM): 0.53
relative viability ([1]; 2.53 µM): 0.925
relative viability ([1]; 8 µM): 0.726
relative viability ([11]; first compound 0.08 µM): 0.404
relative viability ([11]; first compound 2.53 µM): 0.482
relative viability ([11]; first compound 8 µM): 0.321
relative viability ([2]; first compound 0.08 µM): 0.787
relative viability ([2]; first compound 2.53 µM): 0.76
relative viability ([2]; first compound 8 µM): 0.721
relative viability ([12]; first compound 0.08 µM): 0.468
relative viability ([12]; first compound 2.53 µM): 0.454
relative viability ([12]; first compound 8 µM): 0.258
relative viability ([13]; first compound 0.08 µM): 0.235
relative viability ([13]; first compound 0.253 µM): 0.264
relative viability ([13]; first compound 2.53 µM): 0.247
relative viability ([13]; first compound 8 µM): 0.247
relative viability ([14]; first compound 0.08 µM): 0.771
relative viability ([14]; first compound 2.53 µM): 0.708
relative viability ([14]; first compound 8 µM): 0.731
relative viability ([15]; first compound 0.08 µM): 0.566
relative viability ([15]; first compound 0.253 µM): 0.4
relative viability ([15]; first compound 2.53 µM): 0.282
relative viability ([15]; first compound 8 µM): 0.405
relative viability ([16]; first compound 0.08 µM): 0.521
relative viability ([16]; first compound 2.53 µM): 0.682
relative viability ([16]; first compound 8 µM): 0.409
relative viability ([17]; first compound 0.08 µM): 0.704
relative viability ([17]; first compound 2.53 µM): 0.74
relative viability ([17]; first compound 8 µM): 0.498
relative viability ([18]; first compound 0.08 µM): 0.307
relative viability ([18]; first compound 2.53 µM): 0.249
relative viability ([18]; first compound 8 µM): 0.231
